Results: patent publication US12122771B2, “Compounds useful for treatment of substance use disorder” (HIGH POINT UNIVERSITY, priority 2021, dated 2024)

Experiments:
hD4R = hD4R (Homo sapiens (Human), UniProt P21917); experiment: [3H]N-methylspiperone competition binding, D4R; conditions: for Ki: HEK 293 membranes, [3H]N-methylspiperone, read-out: Ki (nM) ± SEM D4R; for Selectivity D2R/D4R / Selectivity D3R/D4R: ratio of Ki values
hD3R = hD3R (Homo sapiens (Human), UniProt P35462); conditions: read-out: Ki (nM) ± SEM D3R; HEK 293 membranes, [3H]N-methylspiperone
Chain of hD3R (P35462 whole entry): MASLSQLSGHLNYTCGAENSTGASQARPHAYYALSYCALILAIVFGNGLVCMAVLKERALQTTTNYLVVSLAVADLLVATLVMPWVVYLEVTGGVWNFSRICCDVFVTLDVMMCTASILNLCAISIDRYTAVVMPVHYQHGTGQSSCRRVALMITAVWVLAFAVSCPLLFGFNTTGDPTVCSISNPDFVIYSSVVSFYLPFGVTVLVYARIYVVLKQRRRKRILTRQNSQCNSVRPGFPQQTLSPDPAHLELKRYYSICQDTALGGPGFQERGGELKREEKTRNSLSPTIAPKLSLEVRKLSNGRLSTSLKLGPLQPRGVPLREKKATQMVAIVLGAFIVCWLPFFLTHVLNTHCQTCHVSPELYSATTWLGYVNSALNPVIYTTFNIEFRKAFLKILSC

hD2R = hD2R (Homo sapiens (Human), UniProt P14416); experiment: [3H]N-methylspiperone competition binding, D2R; conditions: HEK 293 membranes, read-out: Ki (nM) ± SEM D2R
Chain of hD2R (P14416 whole entry): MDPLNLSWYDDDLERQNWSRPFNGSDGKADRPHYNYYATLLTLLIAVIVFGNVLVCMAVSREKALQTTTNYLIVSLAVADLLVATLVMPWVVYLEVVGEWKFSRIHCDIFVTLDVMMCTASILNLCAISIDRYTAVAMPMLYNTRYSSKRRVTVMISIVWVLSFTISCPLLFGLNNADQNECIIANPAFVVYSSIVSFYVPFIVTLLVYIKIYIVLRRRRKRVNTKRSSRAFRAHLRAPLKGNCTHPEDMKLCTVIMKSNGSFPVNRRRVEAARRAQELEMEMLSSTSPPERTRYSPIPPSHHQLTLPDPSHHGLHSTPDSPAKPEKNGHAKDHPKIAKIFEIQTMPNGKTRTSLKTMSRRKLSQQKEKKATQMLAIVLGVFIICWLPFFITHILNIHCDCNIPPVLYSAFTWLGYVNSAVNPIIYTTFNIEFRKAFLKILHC

cocaine intake = conditions: monkeys; cited from earlier work

Chain of hD4R (P21917 whole entry): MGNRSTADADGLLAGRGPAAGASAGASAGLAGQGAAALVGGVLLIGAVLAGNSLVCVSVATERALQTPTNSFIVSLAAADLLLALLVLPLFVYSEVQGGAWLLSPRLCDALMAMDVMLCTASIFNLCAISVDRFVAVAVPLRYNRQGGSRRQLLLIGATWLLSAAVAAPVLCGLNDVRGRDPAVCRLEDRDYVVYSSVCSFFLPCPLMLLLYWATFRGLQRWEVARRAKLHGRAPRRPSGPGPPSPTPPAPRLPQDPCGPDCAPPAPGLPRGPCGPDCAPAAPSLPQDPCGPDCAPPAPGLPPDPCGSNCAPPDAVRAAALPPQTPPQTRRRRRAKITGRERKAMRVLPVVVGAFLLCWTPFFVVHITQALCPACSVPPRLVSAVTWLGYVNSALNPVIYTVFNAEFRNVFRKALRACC

| Compound | D4R binding selectivity vs. D2R and D3R (other D2-like receptors) (hD4R) [fold] | Ki (hD4R) [nM] | Selectivity D2R/D4R (hD4R) | Selectivity D3R/D4R (hD4R) | Ki (hD3R) [nM] | Ki (hD2R) [nM] | cocaine intake (cocaine intake) |
| --- | --- | --- | --- | --- | --- | --- | --- |
| Cc1cccc2nc(CCCN3CCC(c4ccccn4)CC3)sc12 [Compound 15] | > 15907 | 1.13 ± 0.27 | 15907 | 32756 | 37100 ± 30300 | 18000 ± 15200 | – |
| CCc1ccnc(C2CCN(CCCc3nc4ccccc4s3)CC2)c1 [Compound 19] | – | 5.89 | 2082 | 2838 | 16700 ± 13300 | 12300 ± 7670 | – |
| c1ccc(-c2ncc(CN3CCN(c4ncccn4)CC3)[nH]2)cc1 [NGD-94-1] | – | – | – | – | – | – | reduced cocaine intake |
| Ro10-5824 | – | – | – | – | – | – | reduced cocaine intake |
